Source: patent publication US20260297094A1, “Tetracyclic Compounds as SMARCA2 and/or SMARCA4 Degraders” (Aurigene Oncology Limited, priority 2023, published 2026)
Structures can show the parent of a compound that is named as a salt.

Legend:
Type in all cases: cell-based
MV-4-11 cells = assay: Anti proliferative activity in MV-4-11 cells by Cell Titer Glo (Promega) assay; details: Homo sapiens, MV4-11, 72 h, 3 days, CellTiter-Glo
Protocol: Example-P2: Determination of Anti Proliferative Activity of Compounds in Cell Lines MV-4-11 by Cell Titer Glo® (Promega) Assay
MV-4-11 (CRL-9591™) cells were seeded in 96 well plate flat black clear bottom plates (Corning, Cat. No 3904) using complete DMEM Medium. Next day, selected compounds of the present invention were added to cells from 10 mM stocks made in DMSO (Sigma Cat no. D2650). Each concentration of compound was tested in triplicate with DMSO concentration at a final percentage not exceeding 0.3 in the cells. After the incubation of MV-4-11 cells with compound for 3 days; assay was terminated using 100 μl of CellTiter Glo® reagent (Promega, Cat. no G7572). CellTiter-Glo® Luminescent reagent determines the number of viable cells based on quantitation of ATP present which is an indicator of cell number and metabolic activity. Luminescence readings were taken in Victor-5 instrument. Percent inhibition of proliferation was calculated using formula, % inhibition=100−(luminescence value of test/luminescence value of DMSO control)*100. DMSO control (0%)=Cells in complete media with DMSO; blank=Media alone containing DMSO. EC50 was calculated using graph pad prism software.

SK-MEL-5 cells = assay: Anti proliferative activity in SK-MEL-5 cells by Cell Titer Glo (Promega) assay; details: Homo sapiens, retreatment on Day 4, terminated on day 8, CellTiter-Glo
Protocol: Example-P1: Determination of Anti Proliferative Activity of Compounds in Cell Lines SK-MEL-5 by Cell Titer Glo® (Promega) Assay
Cells were seeded into 96-well plates and the plate was incubated in 37 degrees incubator overnight. The next day, compounds were diluted 3-fold to cover 9-point concentration range in DMSO. Intermediate plate dilution was prepared in media followed with compound treatment in cells. Retreatment of cells with compound dilutions was performed on Day 4 and assay was terminated on day 8 for SK-MEL-5 cells using CellTiter-Glo and the plate was kept on orbital shaker for 20 minutes at RT. Assay was terminated on day 6 for RERF-LC-A1 without a compound retreatment. Luminescence signal was recorded on VICTOR^3 instrument. Percent inhibition of proliferation was calculated at each concentration and plotted against the compound concentration. EC50 value was calculated using GraphPad® software.

SMARCA2 = molecular target: T1, SMARCA2 (Homo sapiens, UniProt P51531); assay: SMARCA2 degradation in MV-4-11 cells by Western blot; details: MV4-11, 16 h, at 100 nM, vs DMSO, read-out: Percent degradation SMARCA2
T1 construct: endogenous in cells; host or cells: MV-4-11 (CRL-9591)
Protocol: (§1) Example-P3: Determination of SMARCA2 and SMARCA4 Degradation in MV-4-11 Cells by Western Blot
(§2) MV-4-11 (CRL-9591™) cells were plated in 6 well plates using complete Iscove's Modified Dulbecco's Medium. On the third day, compounds of present invention were added to cells from 10 mM stocks made in DMSO (Sigma Cat no. D2650). Each concentration of compound was tested with DMSO not exceeding final percentage of 0.1 in the cells. Cells were incubated with the compound for 16 hours followed by harvesting with 1×RIPA lysis buffer (Thermo Fischer, catalogue number #89900) containing protease inhibitor cocktail (Sigma catalogue number #P-8340). Equal amount of protein was loaded on SDS PAGE gel for electrophoresis. Western blot was carried out for detection of either SMARCA2 (Cell signalling technologies, catalogue number #11966) or SMARCA4 antibody (Cell signalling technologies, catalogue number #52251). Beta-Tubulin antibody (Cell signalling technologies, catalogue number #86298) was used as loading control. Percentage of SMARCA2 or SMARCA4 degradation was calculated using formula % Degradation=100−(normalized band intensity in treated sample/normalized band intensity in DMSO sample)*100. Here, “ND” refers to Not determined.

SMARCA4 = molecular target: T2, SMARCA4 (Homo sapiens, UniProt P51532); assay: SMARCA4 degradation in MV-4-11 cells by Western blot; details: MV4-11, at 100 nM, 16 hours, vs DMSO, read-out: Percent degradation SMARCA4
T2 construct: endogenous in cells; host or cells: MV-4-11 (CRL-9591)
Protocol: as §1, §2

T1 sequence (P51531 whole entry): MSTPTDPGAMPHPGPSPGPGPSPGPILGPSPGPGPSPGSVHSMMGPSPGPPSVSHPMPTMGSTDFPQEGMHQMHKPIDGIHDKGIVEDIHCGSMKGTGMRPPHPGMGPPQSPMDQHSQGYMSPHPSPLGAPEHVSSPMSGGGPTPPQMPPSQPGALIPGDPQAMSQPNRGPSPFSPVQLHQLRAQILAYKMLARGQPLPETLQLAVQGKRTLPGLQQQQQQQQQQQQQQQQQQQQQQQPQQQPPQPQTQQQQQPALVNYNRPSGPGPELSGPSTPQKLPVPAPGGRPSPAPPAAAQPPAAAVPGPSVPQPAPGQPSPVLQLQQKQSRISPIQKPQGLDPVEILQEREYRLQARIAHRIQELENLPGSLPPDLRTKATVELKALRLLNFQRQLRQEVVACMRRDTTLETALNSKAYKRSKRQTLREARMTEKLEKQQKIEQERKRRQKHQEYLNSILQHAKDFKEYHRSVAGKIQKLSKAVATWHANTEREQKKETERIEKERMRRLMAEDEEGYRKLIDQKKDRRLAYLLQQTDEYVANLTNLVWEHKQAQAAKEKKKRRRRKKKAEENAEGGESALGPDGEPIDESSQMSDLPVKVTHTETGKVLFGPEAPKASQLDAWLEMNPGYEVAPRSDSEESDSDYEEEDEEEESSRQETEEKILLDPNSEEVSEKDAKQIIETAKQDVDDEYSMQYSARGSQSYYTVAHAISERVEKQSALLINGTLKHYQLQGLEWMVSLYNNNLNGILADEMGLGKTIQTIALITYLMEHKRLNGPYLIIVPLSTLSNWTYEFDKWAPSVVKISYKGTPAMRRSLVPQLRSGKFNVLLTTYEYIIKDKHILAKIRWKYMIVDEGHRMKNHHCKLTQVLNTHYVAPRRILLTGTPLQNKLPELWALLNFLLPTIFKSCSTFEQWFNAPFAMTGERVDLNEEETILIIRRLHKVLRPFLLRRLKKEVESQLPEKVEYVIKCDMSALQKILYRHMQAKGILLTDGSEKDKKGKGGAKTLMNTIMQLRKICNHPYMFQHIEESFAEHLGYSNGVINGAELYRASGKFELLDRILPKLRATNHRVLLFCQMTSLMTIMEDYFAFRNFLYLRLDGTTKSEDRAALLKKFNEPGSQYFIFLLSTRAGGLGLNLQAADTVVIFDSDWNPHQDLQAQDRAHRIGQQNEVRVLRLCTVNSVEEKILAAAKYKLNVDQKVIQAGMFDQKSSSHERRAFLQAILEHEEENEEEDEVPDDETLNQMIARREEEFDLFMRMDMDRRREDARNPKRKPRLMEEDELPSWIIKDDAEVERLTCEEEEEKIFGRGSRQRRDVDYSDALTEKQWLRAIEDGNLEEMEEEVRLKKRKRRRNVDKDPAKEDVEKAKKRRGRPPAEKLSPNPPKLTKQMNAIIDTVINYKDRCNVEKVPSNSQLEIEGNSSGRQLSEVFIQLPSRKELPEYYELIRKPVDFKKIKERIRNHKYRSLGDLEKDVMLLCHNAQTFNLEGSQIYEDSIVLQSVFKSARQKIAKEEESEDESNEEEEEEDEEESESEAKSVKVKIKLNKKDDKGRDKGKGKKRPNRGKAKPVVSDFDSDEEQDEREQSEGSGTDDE
T2 sequence (P51532 whole entry): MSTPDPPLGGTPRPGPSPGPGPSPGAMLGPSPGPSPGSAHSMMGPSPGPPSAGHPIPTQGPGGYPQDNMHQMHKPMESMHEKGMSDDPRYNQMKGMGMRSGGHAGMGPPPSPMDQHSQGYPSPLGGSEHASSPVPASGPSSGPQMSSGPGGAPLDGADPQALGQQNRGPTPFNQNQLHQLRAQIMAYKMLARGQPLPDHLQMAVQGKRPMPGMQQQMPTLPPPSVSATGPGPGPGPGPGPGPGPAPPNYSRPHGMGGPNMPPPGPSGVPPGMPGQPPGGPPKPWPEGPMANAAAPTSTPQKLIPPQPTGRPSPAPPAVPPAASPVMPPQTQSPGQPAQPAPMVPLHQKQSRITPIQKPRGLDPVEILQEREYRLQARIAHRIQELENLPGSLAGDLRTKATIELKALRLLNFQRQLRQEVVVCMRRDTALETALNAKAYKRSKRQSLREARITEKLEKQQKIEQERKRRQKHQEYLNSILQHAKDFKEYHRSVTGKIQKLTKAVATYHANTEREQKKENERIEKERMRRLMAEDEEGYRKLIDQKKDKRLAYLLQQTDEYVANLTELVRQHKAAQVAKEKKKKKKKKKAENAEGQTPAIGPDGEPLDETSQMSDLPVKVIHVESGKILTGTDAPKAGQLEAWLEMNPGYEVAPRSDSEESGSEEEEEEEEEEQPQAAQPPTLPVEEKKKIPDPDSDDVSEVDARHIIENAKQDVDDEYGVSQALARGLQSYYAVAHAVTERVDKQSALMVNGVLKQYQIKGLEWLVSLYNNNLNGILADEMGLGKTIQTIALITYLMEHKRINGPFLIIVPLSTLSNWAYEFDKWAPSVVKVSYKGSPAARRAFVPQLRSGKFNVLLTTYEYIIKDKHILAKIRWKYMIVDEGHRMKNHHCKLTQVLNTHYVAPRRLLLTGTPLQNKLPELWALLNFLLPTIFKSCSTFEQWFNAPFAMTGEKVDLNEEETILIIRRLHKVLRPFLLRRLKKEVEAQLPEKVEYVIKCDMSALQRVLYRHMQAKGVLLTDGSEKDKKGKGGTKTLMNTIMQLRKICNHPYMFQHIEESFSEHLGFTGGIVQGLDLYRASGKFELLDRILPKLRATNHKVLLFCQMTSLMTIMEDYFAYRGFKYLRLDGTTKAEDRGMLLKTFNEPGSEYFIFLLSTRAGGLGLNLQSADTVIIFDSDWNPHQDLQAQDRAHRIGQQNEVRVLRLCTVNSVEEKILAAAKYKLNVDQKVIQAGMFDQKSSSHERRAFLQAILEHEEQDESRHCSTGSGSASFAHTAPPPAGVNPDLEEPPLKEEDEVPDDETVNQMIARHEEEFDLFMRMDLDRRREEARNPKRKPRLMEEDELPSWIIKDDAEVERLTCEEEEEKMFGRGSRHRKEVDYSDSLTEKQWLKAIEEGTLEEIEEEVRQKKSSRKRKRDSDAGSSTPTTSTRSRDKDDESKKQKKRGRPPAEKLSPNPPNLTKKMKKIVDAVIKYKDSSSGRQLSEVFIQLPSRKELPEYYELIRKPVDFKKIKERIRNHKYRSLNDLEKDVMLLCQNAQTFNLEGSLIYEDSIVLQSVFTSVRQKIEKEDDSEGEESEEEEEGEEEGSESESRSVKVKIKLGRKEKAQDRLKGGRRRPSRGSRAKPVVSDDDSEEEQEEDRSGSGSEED

Row | EC50 (MV-4-11 cells) [nM] | EC50 (SK-MEL-5 cells) [nM] | inhibition at 0.1 µM (SMARCA2) [%] | inhibition at 0.1 µM (SMARCA4) [%] | SMILES
1 | < 10 | < 10 | 100 | 98 | O=C1CCC(N2Cc3cc(C4CCN(C5CCN(c6ccc7c(c6)n(C6CCCC6)c6nc(=O)c8c(Br)cccc8n76)CC5)CC4)ccc3C2=O)C(=O)N1 (stereo not drawn) [Compound 1, 3-(5-(1′-(4-Bromo-7-cyclopentyl-5-oxo-5,7-dihydrobenzo[4,5]imidazo[1,2-a]quinazolin-9-yl)-[1,4′-bipiperidin]-4-yl)-1-oxoisoindolin-2-yl)piperidine-2,6-dione]
2 | > 100 | > 100 | 48 | – | Cn1c2cc(N3CCC(N4CCN(c5ccc(NC6CCC(=O)NC6=O)cc5F)CC4)CC3)ccc2n2c3cccc(N)c3c(=O)nc12 (stereo not drawn) [Compound 40, 3-((4-(4-(1-(4-amino-7-methyl-5-oxo-5,7-dihydrobenzo[4,5]imidazo[1,2-a]quinazolin-9-yl)piperidin-4-yl)piperazin-1-yl)-3-fluorophenyl)amino)piperidine-2,6-dione]
3 | > 100 | > 100 | 16 | – | CC(C)n1c2cc(N3CCC(N4CCN(c5ccc(C6CCC(=O)NC6=O)cc5)CC4)CC3)ccc2n2c3cccc(N)c3c(=O)nc12 (stereo not drawn) [Compound 44, 3-(4-(4-(1-(4-amino-7-isopropyl-5-oxo-5,7-dihydrobenzo[4,5]imidazo[1,2-a]quinazolin-9-yl)piperidin-4-yl)piperazin-1-yl)phenyl)piperidine-2,6-dione]
4 | > 100 | > 100 | 21 | – | Cn1c2cc(N3CCN(C4CN(c5ccc6c(c5)C(=O)N(C5CCC(=O)NC5=O)C6=O)C4)CC3)ccc2n2c3cccc(N)c3c(=O)nc12 (stereo not drawn) [Compound 45, 5-(3-(4-(4-amino-7-methyl-5-oxo-5,7-dihydrobenzo[4,5]imidazo[1,2-a]quinazolin-9-yl)piperazin-1-yl)azetidin-1-yl)-2-(2,6-dioxopiperidin-3-yl)isoindoline-1,3-dione]
5 | > 100 | < 10 | – | – | CC(C)n1c2cc(N3CCC(N4CCN(c5ccc(NC6CCC(=O)NC6=O)cc5F)CC4)CC3)ccc2n2c3cccc(Cl)c3c(=O)nc12 (stereo not drawn) [Compound 47, 3-((4-(4-(1-(4-chloro-7-isopropyl-5-oxo-5,7-dihydrobenzo[4,5]imidazo[1,2-a]quinazolin-9-yl)piperidin-4-yl)piperazin-1-yl)-3-fluorophenyl)amino)piperidine-2,6-dione]
6 | > 100 | < 10 | – | – | CC(C)n1c2cc(N3CCC(N4CCN(c5ccc6c(c5)CN(C5CCC(=O)NC5=O)C6=O)CC4)CC3)ccc2n2c3cccc(Cl)c3c(=O)nc12 (stereo not drawn) [Compound 48, 3-(5-(4-(1-(4-chloro-7-isopropyl-5-oxo-5,7-dihydrobenzo[4,5]imidazo[1,2-a]quinazolin-9-yl)piperidin-4-yl)piperazin-1-yl)-1-oxoisoindolin-2-yl)piperidine-2,6-dione]
7 | > 100 | > 100 | – | – | Cn1c2cc(-c3ccc(N4CCN(c5ccc(NC6CCC(=O)NC6=O)cc5F)CC4)cc3)ccc2n2c3cccc(N)c3c(=O)nc12 (stereo not drawn) [Compound 49, 3-((4-(4-(4-(4-amino-7-methyl-5-oxo-5,7-dihydrobenzo[4,5]imidazo[1,2-a]quinazolin-9-yl)phenyl)piperazin-1-yl)-3-fluorophenyl)amino)piperidine-2,6-dione]
8 | > 100 | > 100 | – | – | CC(C)n1c2cc(-c3ccc(N4CCN(c5ccc(NC6CCC(=O)NC6=O)cc5F)CC4)cc3)ccc2n2c3cccc(Cl)c3c(=O)nc12 (stereo not drawn) [Compound 50, 3-((4-(4-(4-(4-chloro-7-isopropyl-5-oxo-5,7-dihydrobenzo[4,5]imidazo[1,2-a]quinazolin-9-yl)phenyl)piperazin-1-yl)-3-fluorophenyl)amino)piperidine-2,6-dione.TFA]
